Assay results published in US9422340B2, “Macrocyclic compounds useful as inhibitors of histone deacetylases” (The Regents of the University of Colorado, A Body Corporate, priority 2010, dated 2016).
Like-named read-outs stand apart in the source and are kept apart here.

Assays:
HME = experiment: Cell growth inhibition, crystal violet cell viability assay (control cells); assay type: cell-based; details: read-out: Cell Growth Inhibition GI50, HME
Experimental: (§1) Comparative analysis of the cytotoxic effect of largazole in human cancer cell lines HCT116, SW480 and MDA-MB231. HME were used as control. 8,000 cells were plated in 96-well plates where rows 1 and 10 were treated with DMSO, row 2 had no cells to establish background levels, rows 3-9 contained decreasing concentrations of compound. Cells were incubated with largazole for 48 hours, followed by staining with crystal violet dye. The absorbance at 588 nm was measured using a Tecan Sail re II plate reader. Experiments were performed in replicates of six, and concentration-response curves were generated by nonlinear least square regression analysis of the data using GraphPad Prism (San Diego, Calif.). The growth inhibition (GI50) for each compound was defined as a concentration of drug leading to a 50% reduction in A588 compared with controls
SW480, HCT116, and MDA-MB231 cell lines were purchased from the American Tissue Culture Collection. SW480 and MDA-MB231 cells were grown in Dulbecco's modified Eagle's medium supplemented with 10% fetal calf serum at 37° C. in a humidified 5% CO2 atmosphere. The HCT116 cell line was cultured in McCoy's 5a medium [ATCC; Cat. No. 30-2007] with 1.5 mM L-glutamine and 10% fetal bovine serum [ATCC; Cat. No. 30-2020]. […]
(§2) 8,000 cells from different cancers were plated in flat-bottomed 96-well microplates. […] Cell viability was determined 48 hours later using crystal violet dye (Sigma-Aldrich), which was solubilized in ethanol, and absorbance was measured at 588 nm using a Tecan Sail re II plate reader. […]
as §2, with “cancer or nontransformed cells” for “cancers”, “Safire” for “Sail re”

HCT116 cells [1] = experiment: DNA microarray gene expression profiles; assay type: cell-based, human; details: SAHA (200 μM), Largazole (20 nM), Example 1 (20 nM)
Experimental: FIG. 9A illustrates hierarchical clustering and heatmaps of changes in gene expression profiles in the HCT116 cells with indicated treatment. FIGS. 9B and 9C illustrate Venn diagrams showing unique and shared gene sets whose expression levels changed by more than 2 fold upon exposure to the indicated treatment at 6 hr (FIG. 9B) and 24 hr (FIG. 9C).
Expression values files for each sample were generated using the Robust Multichip Average (RMA) algorithm. Differential expression was determined using the R software package limma to generate linear models and empirical Bayesian statistics. Genes were considered differentially expressed if the P value, adjusted for multiple testing using the Benjamini and Hochberg method, was ≦5% and the log-2 fold change was […].
HCT116 cells were seeded in triplicate at approximately 60% confluency. […] Cells were incubated for 6 or 24 hours followed by a wash with phosphate-buffered saline. Total RNA was extracted using a RNeasy Mini RNA extraction kit (QIAGEN Inc., Valencia, Calif.) immediately after wash. Total RNA concentration was determined using a Lambda 800 UV/VIS spectrometer (PerkinElmer, Waltham, Mass.) and processed for labeling hybridization, wash, and scan at University of Colorado-Denver Health Sciences Center. Three GeneChip® Human Gene 1.0 ST (Affymetrix, Santa Clara, Calif.) arrays were used for each of the time points, cell types, and treatments for a total of 24 arrays. Expression values files for each sample were generated using the Robust Multichip Average (RMA) algorithm. Differential expression was determined using the R software package limma to generate linear models and empirical Bayesian statistics. Genes were considered differentially expressed if the P value, adjusted for multiple testing using the Benjamini and Hochberg method, was ≦5% and the log-2 fold change was […]. GeneSpring GX (Agilent, Santa Clara, Calif.) software was used for hierarchical clustering and generating heatmaps.

[2] = system: acetylated histone H3 in HCT116 cells; experiment: Western blot of histone H3 hyperacetylation; assay type: cell-based, human; details: 8 hours, concentrations ranging from 1/μM to 100 nM
Experimental: Cell extracts were separated via SDS-PAGE electrophoresis and the resulting bands were detected utilizing anti-acetyl-H3 antibodies. DMSO-treated cells serve as a negative control, while the expression of GAPDH was used to show equal loading. […] Cells were treated with the indicated compound for 8 hours with concentrations ranging from 1/μM to 100 nM and immunoblotted with anti-acetylhistone H3 antibody.
For western blot analysis, total protein extracts were prepared by lysing cells in lysis buffer (50 mM Tris-Cl [pH 8.0], 5 mM EDTA, 150 mM NaCl, 1% NP-40, 0.1% SDS, and 1 mM phenylmethylsulfonyl fluoride). 50 μg of total soluble proteins were separated by SDS-PAGE. Proteins were transferred to nitrocellulose membrane and the membrane was blocked for 1 hour with 4% nonfat milk, followed by overnight incubation at 4° C. with primary antibodies against acetylated histone H3 (1:1000, Upstate, #06-599), Ezrin (1:10000, Sigma, E-8897), Glyceraldehyde 3-phosphate dehydrogenase (GAPDH; 1:20000, Santa Cruz, sc-47724), histone H3 (H3; 1:1000, Santa Cruz, sc-8654). Membranes were then incubated with peroxidase conjugated secondary antibodies for one hour at room temperature. Detection was performed using Super Signal WestDura. The expression of Ezrin and GAPDH was used as loading control.

HCT-116 = experiment: Cell growth inhibition, crystal violet cell viability assay; assay type: cell-based; details: Homo sapiens, read-out: Cell Growth Inhibition GI50, HCT-116
Experimental: as §1
(§3) SW480, HCT116, and MDA-MB231 cell lines were purchased from the American Tissue Culture Collection. SW480 and MDA-MB231 cells were grown in Dulbecco's modified Eagle's medium supplemented with 10% fetal calf serum at 37° C. in a humidified 5% CO2 atmosphere. The HCT116 cell line was cultured in McCoy's 5a medium [ATCC; Cat. No. 30-2007] with 1.5 mM L-glutamine and 10% fetal bovine serum [ATCC; Cat. No. 30-2020]. HME cells (Clonetics, San Diego, Calif.; donor 4144) were cultured serum-free in Clonetics' recommended medium and supplements (52 μg/ml bovine pituitary extract, 0.5 μg/ml hydrocortisone, 0.01 μg/ml human epidermal growth factor, 5 μg/ml insulin, 50 μg/ml gentamicin and 50 ng/ml amphotericin-B).
(§4) 8,000 cells from different cancers were plated in flat-bottomed 96-well microplates. (Background control wells lacking the cells but containing the same volume of media were included in each assay plate). 24 hours after seeding, new media was added. To assess the in vitro cytotoxicity, each compound was dissolved in DMSO and prepared immediately before the experiments and was diluted into complete medium before addition to cell cultures. Test compounds were then added to the culture medium for designated decreasing concentrations (600 nM to 10 nM). Cell viability was determined 48 hours later using crystal violet dye (Sigma-Aldrich), which was solubilized in ethanol, and absorbance was measured at 588 nm using a Tecan Sail re II plate reader. Experiments were performed in replicates of six, and concentration-response curves were generated by nonlinear least square regression analysis of the data using GraphPad Prism (San Diego, Calif.). The growth inhibition (GI50) for each compound was defined as a concentration of drug leading to a 50% reduction in A588 compared with controls.
as §4, with “cancer or nontransformed cells” for “cancers”, “Safire” for “Sail re”, “concentration—response” for “concentration-response”

MDA-MB231 = experiment: as above; assay type: cell-based; details: Homo sapiens, read-out: Cell Growth Inhibition GI50, MDA-MB231
Experimental: as §1, §3, §4
as §4, with “cancer or nontransformed cells” for “cancers”, “Safire” for “Sail re”, “concentration—response” for “concentration-response”

HCT 116 cells = details: Zeng et al. 2010; cited from earlier work
HDAC = details: read-out: IC50, HDAC inhibition in treated cells; cells treated with compound; Ying et al. 2008a; cited from earlier work
melanoma cell lines = details: series of melanoma cell lines; Bowers et al. 2008; cited from earlier work
HCT116 cells [3] = details: Ying et al. 2008b, read-out: GI50, antigrowth activity; cited from earlier work
[4] = HME control cells, 48 hours, crystal violet, A588
[5] = HCT-116, 48 hours, crystal violet, A588
[6] = MDA-MB-231, MDA-MB231, 48 hours, crystal violet, A588

Row | GI50 (HCT-116; [5]) | GI50 (MDA-MB231; [6]) | Compound | GI50 (HME; [4]) | # of Genes 2 Fold-Change in comparison to DMSO control (HCT116 cells [1]; 6 hr) | # of Genes 2 Fold-Change in comparison to DMSO control (HCT116 cells [1]; 24 hr) | GI50 (HCT 116 cells) | other results
1 | 16 ± 2 nM | 53 nM | CCCCCCCC(=O)SCC/C=C/[C@@H]1CC(=O)NCc2nc(cs2)C(=O)NC(C)(C)C(=O)N[C@@H](C(C)C)C(=O)O1 [Example 1, S-(E)-4-((7S,10S)-7-isopropyl-4,4-dimethyl-2,5,8,12-tetraoxo-9-oxa-16-thia-3,6,13,18-tetraazabicyclo[13.2.1]octadeca-1(17),15(18)-dien-10-yl)but-3-enyl octanethioate] | ≥ 600 nM | 421 | 174 | – | Deacetylase inhibition, dose response of H3 acetylation (FIG. 8B) [2]: slightly more potent deacetylase inhibitors than largazole (L) and SAHA
2 | 17 nM | 53 ± 3 nM | CCCCCCCC(=O)SCC/C=C/[C@@H]1CC(=O)NCc2nc(co2)C(=O)NC(C)(C)C(=O)N[C@@H](C)C(=O)O1 [Example 4, S-(E)-4-((7S,10S)-4,4,7-trimethyl-2,5,8,12-tetraoxo-9,16-dioxa-3,6,13,18-tetraazabicyclo[13.2.1]octadeca-1(17),15(18)-dien-10-yl)but-3-enyl octanethioate] | ≥ 600 nM | – | – | – | –
3 | – | – | CCCCCCCC(=O)SCC/C=C/[C@@H]1CC(=O)NCc2nc(cs2)C2=N[C@@](C)(CS2)C(=O)N[C@@H](C(C)C)C(=O)O1 [Largazole] | – | 529 | 566 | – | GI50 (HME; 48 h): ≥ 600 nM; GI50 (HCT-116; HCT-116, 48 h): 28 nM; GI50 (MDA-MB231; MDA-MB-231, 48 h): 71 ± 8 nM
4 | – | – | CCCCCCCC(=O)SCCC=CC1CC(=O)NCc2nc(cs2)C2=NC(C)(CS2)C(=O)NC(CC(C)C)C(=O)O1 (stereo not shown) [Leu 1] | – | – | – | 560 nM | –
5 | – | – | CCCCCCCC(=O)SCCC=CC1CC(=O)NCc2nc(cs2)C2=NC(C)(CS2)C(=O)NC(Cc2ccccc2)C(=O)O1 (stereo not shown) [Phe 1] | – | – | – | 260 nM | –
6 | – | – | largazole thiol | – | – | – | – | IC50 (HDAC): 209 nM; IC50 (melanoma cell lines): 380 to 2600 nM; GI50 (HCT116 cells [3]): 38 nM
